Reference: patent US6767741B1, “Metal binding compounds and their use in cell culture medium compositions” (Invitrogen Corporation, priority 1999, dated 2004)

What was measured:
Type in all cases: cell-based
293 cells = assay: Growth of 293 cells in transferrin-free 293 SFM with metal binding compounds; details: third passage
Description: Semi-confluent adherent cultures of 293 Cells (ATCC, CRL 1573) are readily adapted to suspension culture. The cells are first detached with a solution of Trypsin-EDTA (0.05% Trypsin, 0.53 mM Na4EDTA), and then resuspended in conventional medium supplemented with 10% FBS to inhibit the trypsin. The resuspended cells are centrifuged at 200×g for five minutes. The cell pellet is resuspended in 293 SFM (available from Life Technologies, Rockville, Md.) the formulation of which is described in WO 98/08934 which is specifically incorporated herein by reference. Alternatively, the cells may be detached with Versene (Na4EDTA, 0.53 mM) and resuspended in 293 SFM.
The initial seeding density of the 293 cells after conversion to suspension culture is 1×10^6 cells/mL. The cells are shaken on a rotary shaker at 150 rpm in a 37° C. incubator equilibrated with 8% CO2-92% air. When the cells reach a density of 1.5×10^6 cells/mL they are diluted with 293 SFM to a density of 3.0×10^5 cells/mL. Because 293 cells have a tendency to aggregate, the cells may be vortexed vigorously for approximately 45 seconds to obtain a predominantly single cell suspension at the time of passaging and counting. After several passages in suspension culture, the maximum achievable density may be determined.
The ability of metal binding compounds to support cellular growth was evaluated using 293 cells maintained in 293 SFM (Life Technologies, Rockville, Md.) without transferrin or metal binding compound. Stock cultures containing 5 μg/mL human holo-transferrin were prepared in 293 SFM. For metal binding compound evaluation, 293 cells were established in 125 mL shaker flasks at an initial viable seeding density of 2×10^5 cells/mL in a final volume of 20 mL. All cultures were maintained at 37° C. in humidified air containing 8% CO2. To eliminate transferrin carry-over effects, cells were subcultured at 4 day intervals for a total of three passages. At each subculturing, cells were seeded at a density of 2×10^5 cells/mL. Positive control cultures contained 5 μg/mL human holo-transferrin while negative control cultures were established in the absence of either transferrin or metal binding compound. Metal binding compound stocks were prepared at 0.1M-0.2M in ddH2O and solubilized when necessary using 5N NaOH or HCl. Iron complexes were established using 0.2M metal binding compound and iron stocks mixed 1:1 (v/v) and incubated for 5-10 minutes at 22° C. All solutions containing metal binding compounds were filter sterilized using a 0.22 μm Millex-GV filter prior to addition to transferrin and serum-free media.
In most cases, metal binding compounds were evaluated either alone or in combination with ferric chloride or ferrous sulfate at 25 μM, 50 μM and 100 μM. When used in combination, the metal binding compounds were used in equimolar concentration with iron ions. Values in the table represent the mean percentage of control growth for duplicate cultures determined at the third passage.
(§1) When added to the medium formulation un-complexed, the metal binding compound is listed alone, when added as a complex with a transition metal, the source of the transition metal is listed with the metal binding compound.

CHO cells = assay: Growth of CHO cells in transferrin-free CD CHO medium with metal binding compounds; details: third passage, control = 5 μg/mL human holo-transferrin, duplicate cultures
Description: The ability of metal binding compounds to support cellular growth in the absence of transferrin was evaluated using CHO cells maintained in CD CHO medium (Life Technologies, Rockville, Md., the formulation of which is described in WO 98/08934). Stock cultures containing 5 μg/mL human holo-transferrin were prepared in CD CHO medium. For metal binding compound evaluation, CHO cells were established in 125 mL shaker flasks at an initial viable seeding density of 1×10^5 cells/mL in a final volume of 20 mL. All cultures were maintained at 37° C. in humidified air containing 8% CO2. To eliminate transferrin carry-over effects, cells were subcultured at 4 day intervals for a total of three passages. Positive control cultures contained 5 μg/mL human holo-transferrin while negative control cultures were established in the absence of either transferrin or metal binding compound. Metal binding compound stocks were prepared at 0.1M-0.2M in ddH2O and solubilized when necessary using 5N NaOH or HCl. Iron complexes were established using 0.2M metal binding compound and iron stocks mixed 1:1 (v/v) and incubated for 5-10 minutes at 22° C. All solutions containing metal binding compounds were filter sterilized using a 0.22 μm Millex-GV filter prior to addition to transferrin and serum-free media.
(§2) In most cases, metal binding compounds were evaluated either alone or in combination with ferric chloride or ferrous sulfate at 25 μM, 50 μM and 100 μM. Values in the table represent the mean percentage of control growth for duplicate cultures determined at the third passage.
as §1, with “The ability of various metal binding compounds to substitute for transferrin in the culture of CHO cells was determined. When” for “When”

Sp2/0 cells = assay: Growth of Sp2/0 cells in transferrin-free CD Hybridoma medium with metal binding compounds; details: third passage
Description: The ability of iron metal binding compounds to support cellular growth in the absence of transferrin was evaluated using Sp2/0 cells maintained in CD Hybridoma medium (Life Technologies, Rockville, Md.). Stock cultures containing 5 μg/mL human holo-transferrin were prepared in CD Hybridoma medium. For metal binding compound evaluation, Sp2/0 cells were established at an initial viable cell density of 0.5×10^5 cells/mL in stationary culture using 75 cm^2 tissue culture flasks in a final volume of 20 mL. All cultures were maintained at 37° C. in humidified air containing 8% CO2. To eliminate transferrin carry-over effects, cells were subcultured at the same seeding density at 4 day intervals for a total of three passages. Positive control cultures contained 5 μg/mL human holotransferrin while negative control cultures were established in the absence of either transferrin or metal binding compound. Metal binding compound stocks were prepared at 0.1M-0.2M in ddH2O and solubilized when necessary using 5N NaOH or HCl. Iron complexes were established using 0.2M metal binding compound and iron stocks mixed 1:1 (v/v) and incubated for 5-10 minutes at 22° C. All solutions containing metal binding compounds were filter sterilized using a 0.22 μm Millex-GV filter prior to addition to transferrin and serum-free media.
as §2, §1

[1] = 25 μM, control = 5 μg/mL human holo-transferrin, duplicate cultures
[2] = 50 μM, control = 5 μg/mL human holo-transferrin, duplicate cultures
[3] = 100 μM, control = 5 μg/mL human holo-transferrin, duplicate cultures

SMILES | mean percentage of control growth (293 cells; [1]) | mean percentage of control growth (293 cells; [2]) | mean percentage of control growth (293 cells; [3]) | mean percentage of control growth (Sp2/0 cells; [1]) | mean percentage of control growth (Sp2/0 cells; [2]) | mean percentage of control growth (Sp2/0 cells; [3]) | further results
[Cl][Fe]([Cl])[Cl].c1ccc(-c2ccccn2)nc1 [2,2-Dipyridyl · Ferric Chloride] | 51% | 96% | 0% |  |  |  | 
O=C(O)c1cccc(O)c1O.[Cl][Fe]([Cl])[Cl] [2,3-Dihydrobenzoic Acid · Ferric Chloride] |  |  |  |  |  |  | mean percentage of control growth (CHO cells; 25 μM): 71%; mean percentage of control growth (CHO cells; 50 μM): 0%; mean percentage of control growth (CHO cells; 100 μM): 0%
O=C(O)c1cccnc1O.[Cl][Fe]([Cl])[Cl] [2-Hydroxynicotinic Acid · Ferric Chloride] |  |  |  | 64% | 82% | 85% | mean percentage of control growth (293 cells; 100 μM (row note: 293 tested at 100, 150, 200 μM; first column)): 0%; mean percentage of control growth (293 cells; 150 μM (row note: 293 tested at 100, 150, 200 μM; second column)): 0%; mean percentage of control growth (293 cells; 200 μM (row note: 293 tested at 100, 150, 200 μM; third column)): 99%
O=C(O)c1ccccn1.O=S(=O)([O-])[O-].[Fe+2] [2-Pyridinecarboxylic Acid · Ferrous Sulfate] | 67% | 48% | 0% |  |  |  | 
Cc1occc(=O)c1O [3-Hydroxy-2-Methyl-4-Pyrone (Maltol), 3-Hydroxy-2-Methyl-4-Pyrone] | 0% | 28% | 81% | 0% | 0% | 0% | 
Cc1occc(=O)c1O.[Cl][Fe]([Cl])[Cl] [3-Hydroxy-2-Methyl-4-Pyrone · Ferric Chloride] |  |  |  | 60% | 71% | 75% | 
O=[N+]([O-])c1ncccc1O.[Cl][Fe]([Cl])[Cl] [3-Hydroxy-2-Nitropyridine · Ferric Chloride] |  |  |  | 52% | 62% | 72% | 
O=S(=O)([O-])[O-].[Fe+2].[O-][n+]1cccc(O)c1 [3-Hydroxypyridine-N-Oxide · Ferrous Sulfate] | 104% | 58% | 0% |  |  |  | 
[O-][n+]1cccc(O)c1 [3-Hydroxypyridine-N-Oxide] | 4% | 4% | 4% |  |  |  | 
CC(=O)NO.[Cl][Fe]([Cl])[Cl] [Acetohydroxamic Acid · Ferric Chloride] | 83% | 22% | 0% |  |  |  | mean percentage of control growth (Sp2/0 cells; 5 μM, control = holo-transferrin): 40%; mean percentage of control growth (Sp2/0 cells; 10 μM, control = holo-transferrin): 48%; mean percentage of control growth (Sp2/0 cells; 20 μM, control = holo-transferrin): 47%
NC(=O)CC(N)C(=O)O.[Cl][Fe]([Cl])[Cl] (stereo not drawn) [Asparagine · Ferric Chloride] |  |  |  | 36% | 51% | 54% | 
O=C(O)CN(CCN(CC(=O)O)CC(=O)O)CCN(CC(=O)O)CC(=O)O.[Cl][Fe]([Cl])[Cl] [Diethylenetriamine Penta-Acetic Acid · Ferric Chloride] | 79% | 96% | 102% |  |  |  | 
NC(CCC(=O)O)C(=O)O.[Cl][Fe]([Cl])[Cl] (stereo not drawn) [Glutamic Acid · Ferric Chloride] | 102% | 68% | 83% |  |  |  | 
NCC(=O)O.[Cl][Fe]([Cl])[Cl] [Glycine · Ferric Chloride] | 81% | 71% | 72% | 34% | 61% | 56% | 
NCCCCC(N)C(=O)O.[Cl][Fe]([Cl])[Cl] (stereo not drawn) [Lysine · Ferric Chloride] |  |  |  |  |  |  | mean percentage of control growth (CHO cells; 25 μM): 51%; mean percentage of control growth (CHO cells; 50 μM): 79%; mean percentage of control growth (CHO cells; 100 μM): 98%
NC(Cn1ccc(=O)c(O)c1)C(=O)O.[Cl][Fe]([Cl])[Cl] (stereo not drawn) [Mimosine · Ferric Chloride] | 64% | 55% | 80% |  |  |  | 
C1COCCN1.[Cl][Fe]([Cl])[Cl] [Morpholine · Ferric Chloride] |  |  |  | 54% | 64% | 81% | 
OC1C(O)C(O)C(O)C(O)C1O.[Cl][Fe]([Cl])[Cl] (stereo not drawn) [Myo-Inositol · Ferric Chloride] | 79% | 87% | 85% |  |  |  | 
CC(=O)N[C@@H](CS)C(=O)O.[Cl][Fe]([Cl])[Cl] [N-Acetyl-Cysteine · Ferric Chloride] | 88% | 82% | 52% |  |  |  | 
O=C(O)CN(CC(=O)O)CC(=O)O.O=S(=O)([O-])[O-].[Fe+2] [Nitriloacetic Acid · Ferrous Sulfate] | 75% | 95% | 0% |  |  |  | 
O=C(O)CN(CC(=O)O)CC(=O)O [Nitriloacetic Acid] |  |  |  | 0% | 0% | 0% | 
O=S(=O)([O-])[O-].OC[C@@H](O)[C@@H](O)[C@H](O)[C@@H](O)CO.[Fe+2] [Sorbitol · Ferrous Sulfate] | 58% | 69% | 83% |  |  |  | 
